The values below come from patent US9289496B2, “Lipid dipeptide and gel” (Nissan Chemical Industries, Ltd., priority 2008, dated 2016).

Series [1] in a line: Evaluation of gelation of lipid peptides with pure water. The series is classed as physicochemical. Here is the method: Each of the lipid peptides synthesized in Examples 1, 6, 7, 8, and 10 was placed in a sample tube. Pure water (without metals and ions) was added so that a solution would have a lipid peptide concentration of 0.25 or 0.5% (w/v) (w means mass (g), and v means volume (mL)). The mixture was heated at 90° C. or more to dissolve the lipid peptide, and then allowed to cool.

The nature of series [2]: Evaluation of gelation of lipid peptides with phosphate buffer. Format: physicochemical. As to conditions: for Gel formation: acidic region (pH=2.6). Here is the method: Each of the lipid peptides synthesized in Examples 3 to 10 and Example 14 was placed in a sample tube. Each of three phosphate buffers (PBS) (pH=2.6, 7.4, or 10) was added so that a solution would have a lipid peptide concentration of 0.25 or 0.5% (w/v) (conditions A to F). Then, the mixture was heated at 90° C. or more to dissolve the lipid peptide, and then allowed to cool.

The nature of series [3]: Evaluation of gelation of N-palmitoyl-Gly-His.TFA salt with various solutions. The series is classed as physicochemical. Here is the method: Each N-palmitoyl-Gly-His trifluoroacetate synthesized in Examples 1 to 3 was placed in a screw tube (Maruemu No. 1, manufactured by Maruemu Corp.). Each of various solutions shown in Table 3 was added so as to have an N-palmitoyl-Gly-His.TFA salt (also called Pal-GH (TFA)) concentration of 0.5 or 1% (w/v). The mixture was heated at 100° C. with a constant temperature heat block (manufactured by Nippon Genetics Co., Ltd.), and then allowed at room temperature.

Series [4] is described as follows: Gel sheet formation and stability of gel on water immersion. Format: physicochemical. The note with it: 72 hours. Here is the method:
Into a screw tube (Maruemu No. 3, manufactured by Maruemu Corp.), 3 mg of N-palmitoyl-Gly-His (TFA) prepared in Example 1 was placed, and 0.6 ml of Japanese Pharmacopoeia purified water (Kyoei Pharmaceutical Industries, Ltd.) was added into the screw tube so as to have a concentration of 0.5% (w/v). The whole was heated at 105° C. for 5 minutes, and then allowed to stand at room temperature to prepare a gel of 0.5% N-palmitoyl-Gly-His (TFA).
To the gel, 2 ml of Japanese Pharmacopoeia purified water (Kyoei Pharmaceutical Industries, Ltd.) was further added and sheet formation was observed from a wide view for 72 hours.
Into a screw tube (Maruemu No. 3, manufactured by Maruemu Corp.), 9.1 mg of N-palmitoyl-Gly-His.TFA salt prepared in Example 1 was placed, and 0.91 ml of Japanese Pharmacopoeia purified water (Kyoei Pharmaceutical Industries, Ltd.) and 0.91 ml of glycerin (Junsei Chemical Co., Ltd.) were added into the screw tube so as to have a concentration of 0.5% (w/v). The whole was heated at 105° C. for 5 minutes, and then allowed to stand at room temperature to prepare a gel of 0.5% N-palmitoyl-Gly-His.TFA salt in a glycerin solution.
Into the gel, 2 ml of Japanese Pharmacopoeia purified water (Kyoei Pharmaceutical Industries, Ltd.) was further added and sheet formation was observed from a wide view for 72 hours.
Into a screw tube (Maruemu No. 3, manufactured by Maruemu Corp.), 4.6 mg of N-palmitoyl-Gly-His.TFA salt prepared in Example 1 was placed, and 0.46 ml of glycerin was added into the screw tube so as to have a concentration of 1% (w/v). The whole was heated at 105° C. for 5 minutes, and then allowed to stand at room temperature to prepare a gel of 1% N-palmitoyl-Gly-His.TFA salt in glycerin.
(§1) Each of the 50.4 mg of N-palmitoyl-Gly-His.TFA salt prepared in Examples 1 to 3 was placed into a screw tube (Maruemu No. 7, manufactured by Maruemu Corp.). Into the screw tube, 1 ml of polyethylene glycol 400 (Wako Pure Chemical Industries, Ltd.), 1.5 ml of ethanol, and 8 ml of 70% glycerin (Junsei Chemical Co.) in water were added so as to have an N-palmitoyl-Gly-His TFA salt concentration of 0.5% (w/v). The mixture was heated with a dry bath incubator (manufactured by First Gene) (105° C., for 8 minutes), and then allowed to stand at room temperature to form a gel.
Into the gel, 20 ml of Japanese Pharmacopoeia purified water (Kyoei Pharmaceutical Industries, Ltd.) was further added and whether sheet formation occurred or not was observed from a wide view for 72 hours.
(§2) Each of the 52.5 mg of N-palmitoyl-Gly-His.TFA salt prepared in Examples 1 to 3 was added into a screw tube (Maruemu No. 7, manufactured by Maruemu Corp.). Into the screw tube, 0.5 ml of polyethylene glycol 400 (Wako Pure Chemical Industries, Ltd.), 1 ml of ethanol, and 8 ml of 70% glycerin (Junsei Chemical Co.) in water were added so as to have an N-palmitoyl-Gly-His.TFA salt concentration of 0.5% (w/v). The mixture was heated with a dry bath incubator (manufactured by First Gene) (105° C., for 8 minutes), and then allowed to stand at room temperature to form a gel.
(§3) Each of the 50.2 mg of palmitoyl-Gly-His.TFA salt prepared in Examples 1 to 3 was placed into a screw tube (Maruemu No. 7, manufactured by Maruemu Corp.) together with 104.7 mg of indomethacin and 220 mg of I-menthol. Into the screw tube, 0.5 ml of polyethylene glycol 400 (Wako Pure Chemical Industries, Ltd.), 1.5 ml of ethanol, 8 ml of 70% glycerin (Junsei Chemical Co., Ltd.) in water were added so as to have an N-palmitoyl-Gly-His.TFA salt concentration of 0.5% (w/v). […] The texture of the gel was smooth and cool.
After ascertainment of the gel formation, the gel was allowed to stand at room temperature for 45 days. Then, 20 ml of Japanese Pharmacopoeia purified water (Kyoei Pharmaceutical Industries, Ltd.) was added and sheet formation was observed from a wide view for 72 hours. […]

Series [5] in a line: Gel formation in glycerin, polyethylene glycol 400 and ethanol medium. Format: physicochemical. As to conditions: 8 ml 70% glycerin in water. Here is the method: as §1, §2, §3
Series [6] can be described thus: Usable mediums: solubility and gel formation, conventional art vs palmitoyl-Gly-His. The series is classed as physicochemical.
For series [7] the following is noted: cited from earlier work.

“Also recorded” adds a separate entry of the source. Residues, ends and D or L forms follow the SMILES beside them.

`CCCCCCCCCCCCCCCC(=O)NCC(=O)N[C@@H](Cc1c[nH]cn1)C(=O)O.O=C(O)C(F)(F)F` [Example 1, N-palmitoyl-Gly-His.TFA salt] (HELM PEPTIDE1{[CCCCCCCCCCCCCCCC(=O)[*:2]].G.H}$$$$V2.0): the Gelation entry in series [1] (lipid peptide 0.25% (w/v)) is “◯”; in series [1] (lipid peptide 0.50% (w/v)), “◯”; in series [2] (condition A: phosphate buffer pH = 2.6, 0.5% (w/v)), “◯”; in series [2] (condition B: phosphate buffer pH = 2.6, 0.25% (w/v)) it was “◯”; in series [2] (condition C: phosphate buffer pH-7.4, 0.5% (w/v)), “◯”; in series [2] (condition D: phosphate buffer pH-7.4, 0.25% (w/v)), “◯”. The Gelation result in series [2] (condition E: phosphate buffer pH = 10, 0.5% (w/v)) is reported as “◯”. The “Gel formation” value in series [2] (concentration 0.25%) is listed as “formed gels”; in series [2] (concentration 0.5%) it was “formed gels”; in series [5] (0.5% (w/v) with 104.7 mg indomethacin and 220 mg l-menthol, 0.5 ml polyethylene glycol 400, 1.5 ml ethanol), “pale yellow gel”; in series [5] (0.5% (w/v), 0.5 ml polyethylene glycol 400, 1 ml ethanol) it was “form a gel”; in series [5] (0.5% (w/v), 1 ml polyethylene glycol 400, 1.5 ml ethanol), “form a gel”. Besides, the Gel state entry in series [3] (50% 1,3-butanediol aqueous solution, 0.5% (w/v)) is “White gel”; in series [3] (50% glycerin aqueous solution, 0.5% (w/v)), “White gel”; in series [3] (50% liquid paraffin aqueous solution, 0.5% (w/v)) it was “White gel”; in series [3] (50% polyethylene glycol 400 aqueous solution, 0.5% (w/v)), “White gel”; in series [3] (50% propylene glycol aqueous solution, 0.5% (w/v)), “White gel”; in series [3] (70% glycerin aqueous solution, 0.5% (w/v)) it was “Transparent gel”. Also, the Gel state result in series [3] (Glycerin, 1.0% (w/v)) is on record as “Transparent gel”; in series [3] (Polyethylene glycol 400, 1.0% (w/v)), “Transparent gel”. Besides, the “Gel behaviour on immersion in purified water, sheet formation” value in series [4] (0.5% (w/v) gel in 0.5 ml polyethylene glycol 400, 1 ml ethanol, 8 ml 70% glycerin, 20 ml water added) was “not dissolved during water immersion and the formation of a sheet-shaped gel was observed”; in series [4] (0.5% (w/v) gel in 1 ml polyethylene glycol 400, 1.5 ml ethanol, 8 ml 70% glycerin, 20 ml water added) it was “not dissolved during water immersion and the formation of a sheet-shaped gel was observed”; in series [4] (0.5% (w/v) gel in glycerin solution (0.91 ml water + 0.91 ml glycerin), 2 ml water added), “not dissolved during water immersion and the formation of a sheet-shaped gel was observed”; in series [4] (0.5% (w/v) gel in purified water, 2 ml water added), “not dissolved during water immersion and the formation of a sheet-shaped gel was observed; also recorded: did not dissolve during water immersion and the formation of a sheet-shaped gel was observed”; in series [4] (0.5% (w/v) gel including indomethacin and l-menthol, after 45 days at room temperature, 20 ml water added) it was “not dissolved during water immersion and the formation of a sheet-shaped gel was observed”; in series [4] (1% (w/v) gel in glycerin, 2 ml water added), “not dissolved during water immersion and the formation of a sheet-shaped gel was observed”.

Regarding `CCCCCCCCCCCCCCCC(=O)NCC(=O)NCC(=O)NCC(=O)N[C@@H](Cc1c[nH]cn1)C(=O)O` [palmitoyl-Gly-Gly-Gly-His] (HELM PEPTIDE1{[CCCCCCCCCCCCCCCC(=O)[*:2]].G.G.G.H}$$$$V2.0), the Solubility in medium entry in series [6] (50 mM acetate buffer with pH 5, even when heated) was “insoluble”; in series [6] (50 mM citrate buffer with pH 5, even when heated) it was “insoluble”. The Gel formation entry in series [6] (ethanol/water mixed solvent having an ethanol concentration of 80% or more) was “does not form a gel”. Moreover, in series [7] (Non-patent Document 10), the lowest gelation concentration is 0.03 wt %.

With `CCCCCCCCCCCCCCCC(=O)NCC(=O)NCC(=O)N[C@@H](Cc1c[nH]cn1)C(=O)O` [palmitoyl-Gly-Gly-His] (HELM PEPTIDE1{[CCCCCCCCCCCCCCCC(=O)[*:2]].G.G.H}$$$$V2.0), the gelation properties result in series [7] (background art) is reported as “has gelation properties”.
